According to US20220009920A1 (GB005, Inc., priority 2020, published 2022):

Experiments:
BTK = biological target: T1, BTK (Homo sapiens, UniProt Q06187); experiment: Assay to determine activity against BTK; type: biochemical; conditions: 1 mM ATP, 2 nM BTK, 90 minutes at room temperature
T1 construct: purchased Cama
Procedure: Solutions of compounds (test or control) in DMSO were prepared at the desired concentrations, and serially diluted to 11 concentrations by 3-fold dilution in 384pp-plate using TECAN EVO200. 20 nL of stock were transferred to 384 plate using Echo550. DMSO was used as vehicle control.
(BTK was obtained from Cama; FLPeptide2 was obtained from PerkinElmer and Ibrutinib was obtained from Selleck.) 5 μL of ATP solution were added to each well, followed by addition of 15 μL of BTK solution to initiate the reaction. (Note the final volume of each well was 20 μL containing MgCl2 (10 mM), Brij-35 (0.01%), DTT (2 mM), BSA (0.05%), EGTA (1 mM), HEPE (pH7.5) (50 mM), FLPeptide (1.5 uM), ATP (1 mM) and BTK (2 nM).
The plates were incubated at room temperature for 90 minutes and then stopping buffer added (75 μL, containing 0.5 M EDTA) to terminate the reaction. Samples from each well were analyzed using EZ reader. The % remaining activity was calculated using read conversion ratio (CR) according to the equation: […]
XLFit (equation 201) was used to calculate IC50's by floating both bottom and top.

BTK in RAMOS B cells = experiment: Assay to determine BTK activity in RAMOS B cells (anti-IgM, FLIPR Calcium 6); type: cell-based; conditions: anti-IgM EC80, calcium readout
Procedure: On the day before assay, Ramos B cells were plated in plating medium (RPMI1640 medium containing 1% FBS and 1× pencillin-streptomycin). On the day of the assay, 2× dye solution was prepared following the manual of the FLIRP Calcium 6 Assay Kit: Dilute the dye with assay buffer (20 mM HEPES in IX HBSS, pH7.4); Add probenecid to the final concentration of 5 mM; vortex vigorously for 1-2 minutes. Cells were collected by centrifuging, and the pellet was re-suspended in plating medium. After counting, cells were re-suspended at a density of 3×10^6/ml in plating medium. Equal volume of 2× dye solution was added to the cell suspension. Cells were then plated at 20 μl/well into a 384-well poly-D-lysine coated plate. Plate was centrifuged at 1000 rpm for 3 minutes and then incubated at 37° C. for 2 hours followed by an additional 15-minute incubation at 25° C. Compounds were prepared at 3× concentration in dilution buffer (20 mM HEPES and 0.1% BSA in 1×HBSS, pH 7.4). Serially diluted compound was transferred from source plate to a 384-well compound plate by using an Echo 550 (Labcyte). 20 μl/well compound dilution buffer was added to the compound plate and mixed on plate shaker for 2 mins. 4× EC80 of Anti-IgM (Jackson ImmunoResearch) was prepared in dilution buffer and 20 μl/well was added to a new 384-well compound plate. After 60 mins of incubation at 25° C. in the dark; cell plate, compound plate containing 4×EC80 of anti-IgM and FLIPR tips were placed into FLIPR (Molecular Devices). 10 ul/well of 4×EC80 anti-IgM was transferred to the cell plate by FLIPR. Plates were read for 160 sec with 1 sec interval.

T1 sequence (Q06187 whole entry): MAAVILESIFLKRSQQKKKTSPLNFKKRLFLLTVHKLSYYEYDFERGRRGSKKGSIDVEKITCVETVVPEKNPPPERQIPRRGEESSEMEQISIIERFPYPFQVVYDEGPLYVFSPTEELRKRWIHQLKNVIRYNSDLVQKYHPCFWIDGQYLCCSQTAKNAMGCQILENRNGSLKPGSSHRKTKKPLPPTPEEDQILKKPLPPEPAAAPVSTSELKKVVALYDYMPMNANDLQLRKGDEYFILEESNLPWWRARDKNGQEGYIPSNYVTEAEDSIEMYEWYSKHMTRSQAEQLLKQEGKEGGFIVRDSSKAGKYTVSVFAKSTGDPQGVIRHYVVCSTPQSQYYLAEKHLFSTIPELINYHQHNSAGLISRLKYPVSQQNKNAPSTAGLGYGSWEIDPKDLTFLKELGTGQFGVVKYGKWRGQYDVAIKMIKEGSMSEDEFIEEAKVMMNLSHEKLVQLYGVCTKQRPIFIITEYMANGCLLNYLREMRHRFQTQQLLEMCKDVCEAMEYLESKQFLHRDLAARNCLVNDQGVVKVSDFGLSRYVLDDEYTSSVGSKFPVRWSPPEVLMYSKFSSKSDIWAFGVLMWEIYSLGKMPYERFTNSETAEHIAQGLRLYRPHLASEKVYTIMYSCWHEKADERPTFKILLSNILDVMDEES

| IC50 (BTK) | IC50 (BTK in RAMOS B cells; Homo sapiens, Ramos) | IC50 (BTK in RAMOS B cells) | Compound |
| --- | --- | --- | --- |
| ≥ 100 nM | ≥ 100 nM |  | C=CC(=O)N1CCc2c(-c3c(F)cc(C(N)=O)c4[nH]c5c(c34)CC3(CC5)CC3)cccc2[C@@H]1C (atropisomer, axis not shown) [Compound 7-20, 5-((S)-2-acryloyl-1-methyl-1,2,3,4-tetrahydroisoquinolin-5-yl)-6-fluoro-1,2,4,9-tetrahydrospiro[carbazole-3,1′-cyclopropane]-8-carboxamide] |
| < 10 nM | 10 to 100 nM |  | C=CC(=O)N1CCc2c(-c3c(F)cc(C(N)=O)c4[nH]c5c(c34)CC3(CC5)CC3)cccc2[C@@H]1C (atropisomer, axis not shown) [Compound 7-21, (R)-5-((S)-2-acryloyl-1-methyl-1,2,3,4-tetrahydroisoquinolin-5-yl)-6-fluoro-1,2,4,9-tetrahydrospiro[carbazole-3,1′-cyclopropane]-8-carboxamide] |
| 10 to 100 nM |  | ≥ 100 nM | C=CC(=O)N1CCc2c(cccc2-c2c(C)nc(C(N)=O)c3[nH]c4c(c23)CCCC4)C1 (single isomer, unassigned) [Compound 2-5, 4-(2-acryloyl-1,2,3,4-tetrahydroisoquinolin-5-yl)-3-methyl-6,7,8,9-tetrahydro-5H-pyrido[3,4-b]indole-1-carboxamide] |
| < 10 nM |  | 10 to 100 nM | C=CC(=O)N1CCc2c(cccc2-c2c(C)nc(C(N)=O)c3[nH]c4c(c23)CCCC4)C1 (single isomer, unassigned) [Compound 2-6, 4-(2-acryloyl-1,2,3,4-tetrahydroisoquinolin-5-yl)-3-methyl-6,7,8,9-tetrahydro-5H-pyrido[3,4-b]indole-1-carboxamide] |
| ≥ 100 nM |  | ≥ 100 nM | C=CC(=O)N1CCc2c(cccc2-c2c(C)nc(C(N)=O)c3[nH]c4c(c23)CCCC4)C1 (single isomer, unassigned) [Compound 2-7, 4-(2-acryloyl-1,2,3,4-tetrahydroisoquinolin-5-yl)-3-methyl-6,7,8,9-tetrahydro-5H-pyrido[3,4-b]indole-1-carboxamide] |
| 10 to 100 nM |  | 10 to 100 nM | C=CC(=O)N1CCc2c(cccc2-c2c(F)cc(C(N)=O)c3[nH]c4c(c23)CCCCC4)C1 (single isomer, unassigned) [Compound 5-1, 2-fluoro-1-[2-(prop-2-enoyl)-3,4-dihydro-1H-isoquinolin-5-yl]-5H,6H,7H,8H,9H,10H-cyclohepta[b]indole-4-carboxamide] |
| ≥ 100 nM |  | ≥ 100 nM | C=CC(=O)N1CCc2c(cccc2-c2c(F)cc(C(N)=O)c3[nH]c4c(c23)CCCCC4)C1 (single isomer, unassigned) [Compound 5-2, 2-fluoro-1-[2-(prop-2-enoyl)-3,4-dihydro-1H-isoquinolin-5-yl]-5H,6H,7H,8H,9H,10H-cyclohepta[b]indole-4-carboxamide] |
| < 10 nM | ≥ 100 nM |  | C=CC(=O)N1CCc2c(cccc2-c2c(F)cc(C(N)=O)c3[nH]c4c(c23)C[S+]([O-])CC4)C1 (single isomer, unassigned) [Compound 9-1, 9-(2-acryloyl-1,2,3,4-tetrahydroisoquinolin-5-yl)-8-fluoro-1,3,4,5-tetrahydrothiopyrano[4,3-b]indole-6-carboxamide 2-oxide] |
| 10 to 100 nM |  | ≥ 100 nM | C=CC(=O)N1CCc2c(cccc2-c2c(F)cc(C(N)=O)c3[nH]c4c(c23)C[S+]([O-])CC4)C1 (single isomer, unassigned) [Compound 9-2, 9-(2-acryloyl-1,2,3,4-tetrahydroisoquinolin-5-yl)-8-fluoro-1,3,4,5-tetrahydrothiopyrano[4,3-b]indole-6-carboxamide 2-oxide] |
| < 10 nM |  | 10 to 100 nM | C=CC(=O)N1CCc2c(cccc2-c2c(F)cc(C(N)=O)c3[nH]c4c(c23)CS(=O)(=O)CC4)C1 (single isomer, unassigned) [Compound 9-3, 9-(2-acryloyl-1,2,3,4-tetrahydroisoquinolin-5-yl)-8-fluoro-1,3,4,5-tetrahydrothiopyrano[4,3-b]indole-6-carboxamide 2,2-dioxide] |
| ≥ 100 nM |  | ≥ 100 nM | C=CC(=O)N1CCc2c(cccc2-c2c(F)cc(C(N)=O)c3[nH]c4c(c23)CS(=O)(=O)CC4)C1 (single isomer, unassigned) [Compound 9-4, 9-(2-acryloyl-1,2,3,4-tetrahydroisoquinolin-5-yl)-8-fluoro-1,3,4,5-tetrahydrothiopyrano[4,3-b]indole-6-carboxamide 2,2-dioxide] |
| < 10 nM |  | < 10 nM | CC#CC(=O)N[C@H]1CCCC(c2c(F)cc(C(N)=O)c3[nH]c4c(c23)CCC4)C1 (single isomer, unassigned) [Compound 10-5] |
| 10 to 100 nM |  | ≥ 100 nM | CC#CC(=O)N[C@H]1CCCC(c2c(F)cc(C(N)=O)c3[nH]c4c(c23)CCC4)C1 (single isomer, unassigned) [Compound 10-6] |
| 10 to 100 nM | 10 to 100 nM |  | C=CC(=O)N1CCCC(c2cnc(C(N)=O)c3[nH]c4c(c23)CCCC4)C1 (centres unmarked) [Compound 1-1, 4-(1-acryloylpiperidin-3-yl)-6,7,8,9-tetrahydro-5H-pyrido[3,4-b]indole-1-carboxamide] |
| 10 to 100 nM | 10 to 100 nM |  | C=CC(=O)N1CCc2c(cccc2-c2cnc(C(N)=O)c3[nH]c4c(c23)CCCC4)C1 [Compound 2-1, 4-(2-acryloyl-1,2,3,4-tetrahydroisoquinolin-5-yl)-6,7,8,9-tetrahydro-5H-pyrido[3,4-b]indole-1-carboxamide] |
| 10 to 100 nM | 10 to 100 nM |  | C=CC(=O)N1CCC=C(c2cnc(C(N)=O)c3[nH]c4c(c23)CCCC4)C1 [Compound 2-2] |
| ≥ 100 nM | ≥ 100 nM |  | C=CC(=O)N1CCC[C@H](c2cnc(C(N)=O)c3[nH]c4c(c23)CCCC4)C1 [Compound 2-3, (R)-4-(1-acryloylpiperidin-3-yl)-6,7,8,9-tetrahydro-5H-pyrido[3,4-b]indole-1-carboxamide] |
| 10 to 100 nM | ≥ 100 nM |  | CC#CC(=O)N1CCC=C(c2cnc(C(N)=O)c3[nH]c4c(c23)CCCC4)C1 [Compound 2-8, 4-(1-(but-2-ynoyl)-1,2,5,6-tetrahydropyridin-3-yl)-6,7,8,9-tetrahydro-5H-pyrido[3,4-b]indole-1-carboxamide] |
| 10 to 100 nM | 10 to 100 nM |  | C=CC(=O)N1CCC=C(c2cnc(C(N)=O)c3[nH]c4c(c23)CC(F)(F)CC4)C1 [Compound 2-9, 4-(1-acryloyl-1,2,5,6-tetrahydropyridin-3-yl)-6,6-difluoro-6,7,8,9-tetrahydro-5H-pyrido[3,4-b]indole-1-carboxamide] |
| < 10 nM | < 10 nM |  | C=CC(=O)N1CCc2c(cccc2-c2ncc(C(N)=O)c3[nH]c4c(c23)CCCC4)C1 [Compound 3-1, 1-(2-acryloyl-1,2,3,4-tetrahydroisoquinolin-5-yl)-6,7,8,9-tetrahydro-5H-pyrido[4,3-b]indole-4-carboxamide] |
| < 10 nM | < 10 nM |  | C=CC(=O)N1CCC=C(c2ncc(C(N)=O)c3[nH]c4c(c23)CCCC4)C1 [Compound 3-2, 1-(1-acryloyl-1,2,5,6-tetrahydropyridin-3-yl)-6,7,8,9-tetrahydro-5H-pyrido[4,3-b]indole-4-carboxamide] |
| < 10 nM | < 10 nM |  | C=CC(=O)N1CCCC(c2ncc(C(N)=O)c3[nH]c4c(c23)CCCC4)C1 (centres unmarked) [Compound 3-3, 1-(1-acryloylpiperidin-3-yl)-6,7,8,9-tetrahydro-5H-pyrido[4,3-b]indole-4-carboxamide] |
| ≥ 100 nM | ≥ 100 nM |  | C=CC(=O)N[C@H]1CCCN(c2ncc(C(N)=O)c3[nH]c4c(c23)CCCC4)C1 [Compound 3-4, (S)-1-(3-acrylamidopiperidin-1-yl)-6,7,8,9-tetrahydro-5H-pyrido[4,3-b]indole-4-carboxamide] |

| Compound | IC50 (BTK) | IC50 (BTK in RAMOS B cells; Homo sapiens, Ramos) | IC50 (BTK in RAMOS B cells) |
| --- | --- | --- | --- |
| C=CC(=O)N1CCCC(c2c(F)cc(C(N)=O)c3[nH]c4c(c23)CCCCC4)C1 (racemic) [Compound 5-5, 1-(1-acryloylpiperidin-3-yl)-2-fluoro-5,6,7,8,9,10-hexahydrocyclohepta[b]indole-4-carboxamide] | 10 to 100 nM | 10 to 100 nM |  |
| C=CC(=O)N1CCCC(c2c(F)cc(C(N)=O)c3[nH]c4c(c23)CCCCC4)C1 (single isomer, unassigned) [Compound 5-7] | ≥ 100 nM |  | ≥ 100 nM |
